Assay [1] concerns STAT5 Y694 phosphorylation. Description: Protein electrophoresis and blotting of STAT5 Y694 phosphorylation in Jurkat cells stimulated with human interferon beta. The following applies: observed pSTAT5 bands at 10 μM and 100 μM. In kind it is cell-based. In short, it runs like this:
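Serum-free Jurkat cells pretreated with compound 1 h, then stimulated with 20 ng/ml human interferon beta for 30 min at 37° C. pSTAT5 measured by western blot with chemiluminescence, normalized to GAPDH and expressed as percent of DMSO control.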

Assay [2] relates to STAT5 Y694 phosphorylation. Description: HTRF experiment: STAT5 Y694 phosphorylation in Hela cells stimulated with human interferon beta. The assay is classed as cell-based. The note with it: 2 hours pretreatment, 10 nM human interferon beta 30 minutes. On the procedure:
Example of Effect 3: HTRF Experiment
Human Interferon 3 (IFN-0) (GenScript, Cat #P01574), STAT5 Y694 phosphorylation detection kit (STAT5 phospho-Y694 kit) (Cisbio; Cat #64AT5PEG).
Hela cells (ATCC American Standard Culture Center, CCL-2) were cultured in a 96-well plate at a density of 3×10^4 cells/well with DMEM medium containing 5% fetal bovine serum and maintained at 37° C. in a humidified incubator with 5% carbon dioxide overnight. On the second day, the original DMEM medium in the 96-well plate was sucked dry, and an equal volume of medium containing different concentrations of compounds (the mother liquor of the compound prepared by dimethyl sulfoxide was diluted in the medium at the required concentration) was added for pretreatment for 2 hours, and then it was placed in an incubator at 37° C. Then human interferon beta with a final concentration of 10 nM was added to stimulate, and it was gently shaken to mix well and then placed in an incubator at 37° C. for 30 minutes.
The medium was removed, an appropriate volume of PBS was added to wash, and then it was sucked dry. Then 40 microliters of 1× Lysis Buffer was added to each well and it was stood for 30 minutes at room temperature (1 ml 1× lysate preparation: 740 μl ddH2O was added to 250 μl 4× lysate and 10 μl Blocking reagent and it was mixed thoroughly). After 30 minutes, the cells were repeatedly blown until the lysis solution was not viscous (avoiding blowing out bubbles) to achieve sufficient lysis.
After overnight incubation, the signals of 665 nm and 620 nm were detected in a multifunctional microplate reader. The calculation formula for the detection of STAT5 Y694 phosphorylation is: Ratio=[(signal 665 nm)/(signal 620 nm)]×10^4. Treatment with dimethyl sulfoxide alone was the baseline control (Ratiobase), and the human interferon β stimulation without addition of the compound was the STAT5 Y694 full phosphorylation activation control (Ratiostimulation), the inhibition rate of STAT5 Y694 phosphorylation of different samples was normalized: Inhibition rate=[1−(RatioExperiment−Ratiobase)/(Ratiostimulation−Ratiobase)]*100.
A general note: In TR-FRET formats the signal depends on donor and acceptor labels being close together.

From US20230099441A1, “HETEROCYCLIC COMPOUND, APPLICATION THEREOF, AND COMPOSITION CONTAINING SAME” (GenEros Biopharma Ltd., priority 2019, published 2023) come the findings set out here.

With `O=C(Cc1ccc(C(F)(F)F)cc1)N1CCC(n2c(=O)[nH]c3cccc(O)c32)CC1` [GEN1-016, 7-hydroxy-1-(1-(2-(4-(trifluoromethyl)phenyl)acetyl)piperidin-4-yl)-1H-benzo[d]imidazole-2 (3H)-one], the “Example of Effect 1: Inhibiting Ability (Protein Electrophoresis and Blotting)” value (“Example of Effect 1: Inhibiting Ability” for short) in assay [1] is reported as “+”. For the same compound, the “Example of Effect 3: Inhibiting Ratio@10 μM (HTRF Experiment)” value in assay [2] was determined as 9.50%.

As to `O=C(Cc1ccc(C(F)(F)F)cc1)N1CCC(n2c(=O)[nH]c3cccc([N+](=O)[O-])c32)CC1` [GEN1-091, 7-nitro-1-(1-(2-(4-(trifluoromethyl)phenyl)acetyl)piperidin-4-yl)-1H-benzo[d]imidazol-2(3H)-one], the “Example of Effect 1: Inhibiting Ability” value in assay [1] is on record as “+”. In addition, the “Example of Effect 3: Inhibiting Ratio@10 μM (HTRF Experiment)” value in assay [2] is on record as 17.60%. Consider `O=C(Cc1c[nH]c2ccccc12)N1CCC(n2c(=O)[nH]c3cccc(C(F)(F)F)c32)CC1` [GEN1-169], for which the “Example of Effect 1: Inhibiting Ability” value in assay [1] is recorded as “+”. Moreover, the “Example of Effect 3: Inhibiting Ratio@10 μM (HTRF Experiment)” value in assay [2] was determined as 13.47%. With `O=C(Cc1ccc2ncccc2c1)N1CCC(n2c(=O)[nH]c3ccccc32)CC1` [GEN1-075, 1-(1-(2-(quinolin-6-yl)acetyl)piperidin-4-yl)-1H-benzo[d]imidazol-2(3H)-one], in assay [1], the “Example of Effect 1: Inhibiting Ability” value is given as “+”. Moreover, in assay [2], the “Example of Effect 3: Inhibiting Ratio@10 μM (HTRF Experiment)” value is 10.79%. As for `O=C(Cc1ccc(C(F)(F)F)cc1)N1CCC(n2c(=O)[nH]c3ccc(-c4ccccc4)c(C(F)(F)F)c32)CC1` [GEN1-277, 6-phenyl-7-(trifluoromethyl)-1-(1-(2-(4-(trifluoromethyl)phenyl)acetyl)piperidin-4-yl)-1H-benzo[d]imidazol-2(3H)-one], in assay [2], the “Example of Effect 3: Inhibiting Ratio@10 μM (HTRF Experiment)” value is 6.52%. For the compound `Cc1cccc2[nH]c(=O)n(C3CCN(C(=O)Cc4ccc(C(F)(F)F)cc4)CC3)c12` [GEN1-282], the “Example of Effect 3: Inhibiting Ratio@10 μM (HTRF Experiment)” value in assay [2] came out at 49.93%.

Consider `COc1cc(CC(=O)N2CCC(n3c(=O)[nH]c4cccc(C(F)(F)F)c43)CC2)ccc1Cl` [GEN1-278, 1-(1-(2-(4-chloro-3-methoxyphenyl)acetyl)piperidin-4-yl)-7-(trifluoromethyl)-1,3-dihydro-2H-benzo[d]imidazol-2-one], for which the “Example of Effect 3: Inhibiting Ratio@10 μM (HTRF Experiment)” value in assay [2] is listed as 73.74%. The same measure, in the same setting: then `O=C(Cc1ccc(C(F)(F)F)cc1)N1CCC(N2C(=O)NCc3cccc(C(F)(F)F)c32)CC1` [GEN1-265, 8-(trifluoromethyl)-1-(1-(2-(4-(trifluoromethyl)phenyl)acetyl)piperidin-4-yl)-3,4-dihydroquinazolin-2(1H)-one], with 16.47%. For `O=C(Cc1ccc(C(F)(F)F)cc1)N1CCC(N2Cc3ccccc3NC2=O)CC1` [GEN1-161, 3-(1-(2-(4-(trifluoromethyl)phenyl)acetyl)piperidin-4-yl)-3,4-dihydroquinazolin-2(1H)-one], the “Example of Effect 1: Inhibiting Ability” value in assay [1] is on record as “+”. The “Example of Effect 3: Inhibiting Ratio@10 μM (HTRF Experiment)” value in assay [2] was determined as 1.38%. Take `O=C(Cc1ccc(Br)cc1)N1CCC(n2c(=O)[nH]c3cccc(C(F)(F)F)c32)CC1` [GEN1-157, 1-(1-(2-(4-bromophenyl)acetyl)piperidin-4-yl)-7-(trifluoromethyl)-1H-benzo[d]imidazol-2(3H)-one]: in assay [1], the “Example of Effect 1: Inhibiting Ability” value was “+”. Further, the “Example of Effect 3: Inhibiting Ratio@10 μM (HTRF Experiment)” value in assay [2] was 28.83%. Consider `COc1cccc(CC(=O)N2CCC(n3c(=O)[nH]c4ccccc43)CC2)c1` [GEN1-270], for which, in assay [2], the “Example of Effect 3: Inhibiting Ratio@10 μM (HTRF Experiment)” value is given as 21.10%. `O=C(Cc1ccc(C(F)(F)F)cc1)N1CCC(n2c(=O)[nH]c3cccc(F)c32)CC1` [GEN1-289]: in assay [2], the “Example of Effect 3: Inhibiting Ratio@10 μM (HTRF Experiment)” value is reported as 6.86%. For `O=C(Cc1ccc2ncccc2c1)N1CCC(n2c(=O)[nH]c3cccc(Cl)c32)CC1` [GEN1-291], the “Example of Effect 3: Inhibiting Ratio@10 μM (HTRF Experiment)” value in assay [2] came to 70.98%. With `O=C(Cc1ccc(C(F)(F)F)cc1)NCCn1c(=O)[nH]c2ccccc21` [GEN1-062, N-(2-(2-oxo-2,3-dihydro-1H-benzo[d]imidazol-1-yl)ethyl)-2-(4-(trifluoromethyl)phenyl)acetamide], the “Example of Effect 3: Inhibiting Ratio@10 μM (HTRF Experiment)” value in assay [2] is 5.12%. As to `O=C(Cc1ccc(C(F)(F)F)cc1)N1CCC(n2c(=O)[nH]c3cccc(Br)c32)CC1` [GEN1-290], in assay [2], the “Example of Effect 3: Inhibiting Ratio@10 μM (HTRF Experiment)” value is recorded as 57.51%. Regarding `CCOc1cccc(CC(=O)N2CCC(n3c(=O)[nH]c4ccccc43)CC2)c1` [GEN1-287], the “Example of Effect 3: Inhibiting Ratio@10 μM (HTRF Experiment)” value in assay [2] was 8.72%. For `O=C1CN(C2CCN(C(=O)Cc3ccc(C(F)(F)F)cc3)CC2)c2ccc(C(F)(F)F)cc2N1` [GEN1-135, 7-(trifluoromethyl)-4-(1-(2-(4-(trifluoromethyl)phenyl)acetyl)piperidin-4-yl)-3,4-dihydroquinoxaline-2(1H)-one], in assay [2], the “Example of Effect 3: Inhibiting Ratio@10 μM (HTRF Experiment)” value is given as 22.91%. As for `CS(=O)(=O)Nc1ccc(CC(=O)N2CCC(n3c(=O)[nH]c4ccccc43)CC2)cc1` [GEN1-110], in assay [2], the “Example of Effect 3: Inhibiting Ratio@10 μM (HTRF Experiment)” value was −10.49%. Still for that read-out and setting: the value for `O=C(C[C@H]1CC[C@H](C(F)(F)F)CC1)N1CCC(n2c(=O)[nH]c3cccc(C(F)(F)F)c32)CC1` [GEN1-268, 7-(trifluoromethyl)-1-(1-(2-((1R,4R)-4-(trifluoromethyl)cyclohexyl)acetyl)piperidin-4-yl)-1H-benzo[d]imidazol-2(3H)-one] was 58.21%; that for `O=C(Cc1ccc2[nH]ccc2c1)N1CCC(n2c(=O)[nH]c3ccccc32)CC1` [GEN1-077, 3-[1-[2-(1H-indol-5-yl)acetyl]-4-piperidinyl]-1H-benzimidazol-2-one] was 34.25%.

As for `COc1ccccc1CC(=O)N1CCC(n2c(=O)[nH]c3ccccc32)CC1` [GEN1-271], the “Example of Effect 3: Inhibiting Ratio@10 μM (HTRF Experiment)” value in assay [2] was 9.33%. The same measure, in the same setting: the value for `O=C(Cc1ccc2ncccc2c1)N1CCC(n2c(=O)[nH]c3cc(Cl)ccc32)CC1` [GEN1-294] was 1.85%. As for `O=C(Cc1ccc(C(F)(F)F)cc1)N1CCC(n2c(=O)[nH]c3cccc(Cl)c32)CC1` [GEN1-281], in assay [2], the “Example of Effect 3: Inhibiting Ratio@10 μM (HTRF Experiment)” value came to 50.87%. For the compound `O=C(Cc1ccc(Cl)c(OC(F)(F)F)c1)N1CCC(n2c(=O)[nH]c3cccc(C(F)(F)F)c32)CC1` [GEN1-280, 1-(1-(2-(4-chloro-3-(trifluoromethoxy)phenyl)acetyl)piperidin-4-yl)-7-(trifluoromethyl)-1,3-dihydro-2H-benzo[d]imidazol-2-one], in assay [2], the “Example of Effect 3: Inhibiting Ratio@10 μM (HTRF Experiment)” value came to 20.53%. As for `Cc1cccc2[nH]c(=O)n(C3CCN(C(=O)Cc4ccc5ncccc5c4)CC3)c12` [GEN1-292, 7-methyl-1-(1-(2-(quinolin-6-yl)acetyl)piperidin-4-yl)-1,3-dihydro-2H-benzo[d]imidazol-2-one], the “Example of Effect 3: Inhibiting Ratio@10 μM (HTRF Experiment)” value in assay [2] amounted to 59.63%. Regarding `O=C(Cc1ccc(C(F)(F)F)cc1)N1CCC(N2CC(=S)Nc3ccccc32)CC1` [GEN1-133], the “Example of Effect 3: Inhibiting Ratio@10 μM (HTRF Experiment)” value in assay [2] is given as 31.27%. As for `O=C(Cc1ccc(C(F)(F)F)cc1)N1CCC(Nc2ccccc2O)CC1` [GEN1-056, 1-(4-((2-hydroxyphenyl)amino)piperidin-1-yl)-2-(4-(trifluoromethyl)phenyl)ethenone], in assay [2], the “Example of Effect 3: Inhibiting Ratio@10 μM (HTRF Experiment)” value is 13.93%. Turning to `O=C(Cc1ccc(C(F)(F)F)cc1)N1CCC(c2c(Br)[nH]c3ccccc23)CC1` [GEN1-139, 1-(4-(2-bromo-1H-indol-3-yl)piperidin-1-yl)-2-(4-(trifluoromethyl)phenyl)ethenone], the “Example of Effect 3: Inhibiting Ratio@10 μM (HTRF Experiment)” value in assay [2] came to 18.43%. `O=C(Cc1ccc2c(c1)CCCN2)N1CCC(n2c(=O)[nH]c3cccc(C(F)(F)F)c32)CC1` [GEN1-276, 1-(1-(2-(1,2,3,4-tetrahydroquinolin-6-yl)acetyl)piperidin-4-yl)-7-(trifluoromethyl)-1,3-dihydro-2H-benzo[d]imidazol-2-one]: the “Example of Effect 3: Inhibiting Ratio@10 μM (HTRF Experiment)” value in assay [2] worked out at 55.48%.

On to `O=C1Nc2ccccc2C2(CCN(C(=O)Cc3ccc(C(F)(F)F)cc3)CC2)N1` [GEN1-179, 1-(2-(4-(trifluoromethyl)phenyl)acetyl)-1′H-spiro[piperidin-4,4′-quinazoline]-2′(3′H)-one], for which, in assay [2], the “Example of Effect 3: Inhibiting Ratio@10 μM (HTRF Experiment)” value was determined as 10.11%. As for `O=C1Nc2ccccc2C2(CCN(C(=O)Cc3ccc(C(F)(F)F)cc3)CC2)O1` [GEN1-178, 1′-(2-(4-(trifluoromethyl)phenyl)acetyl)spiro[benzo[d][1,3]oxazine-4,4′-piperidine]-2(1H)-one], the “Example of Effect 3: Inhibiting Ratio@10 μM (HTRF Experiment)” value in assay [2] amounted to 8.67%.
